From article PMC10060354, “Discovery of a small molecule ligand of FRS2 that inhibits invasion and tumor growth” (Cellular Oncology, 2022)

Tests used:
[1] = system: RT-112; test: SIA, collagen I invasion; format: cell-based, human
Experimental: (§1) 1000—2500 cells/well in 100 μl were seeded in 96 well Corning® Spheroid microplate (CLS4520, Sigma-Aldrich) or in cell-repellent 96 well microplate (650,790, Greiner Bio-one). SIA and analysis was performed as described before. In brief: After spheroid formation (24 – 72 h after seeding), 70 µl medium was removed and replaced with the collagen mixture (2.5 mg/ml Pure Col Collagen I (Advanced Biomatrix)), DMEM 1x (from 10 × stock, Sigma, D2429) and 0.4% Sodium bicarbonate (Sigma, S8761)), resulting in a final collagen concentration of 1.75 mg/ml. Embedded spheroids were stimulated with bFGF (100 ng/ml if not otherwise stated), HGF (30 ng /ml) or EGF (20 ng/ml) and distance of invaded cells quantified 24 – 48 h after embedding. Compounds and BGJ398 were added in Dimethylsulfoxid (DMSO) and corresponding DMSO concentrations were used in control samples.

[2] = system: DAOY siCTL cells; test: SIA, bFGF-induced collagen I invasion in control siRNA cells; format: cell-based; settings: Homo sapiens
Experimental: as §1
(§2) siFRS2 in DAOY cells: 50,000 cells/well in 2 ml medium were seeded in 6 well plates and incubated at 37 °C, 5% CO2. The following day cells were transfected with 10 nM siRNA (5 nM Silencer Select, 5 nM Stealth RNAi siRNA) using Lipofectamin RNAiMAX Transfection Reagent (13,778,075; Invitrogen) and Opti-MEM® medium (15,392,402; Gibco). After 6 h, the medium was exchanged with fresh complete medium and further processed for the SIA protocol.

[3] = system: DAOY siFRS2 cells; test: SIA, bFGF-induced collagen I invasion in FRS2-depleted cells; format: cell-based, human
Experimental: as §1, §2

[4] = system: DMS114; test: Boyden chamber transwell migration assay; format: cell-based, human; settings: 24 h
Experimental: (§3) Transwells with 5 μm pore size (83.3932.500; Sarstedt) were coated with 50 µl of 0.06 μg/μl Pure Col Collagen I (5005; Advanced BioMatrix) dissolved in 100% EtOH for a final concentration of 10 μg/cm^2. 10,000 – 15,000 cells were resuspended in serum-free medium or serum-free medium containing the appropriate treatment and seeded in the upper chamber of a 24 well plate containing the coated transwell. The lower chamber was filled with either serum-free medium or serum-free medium with bFGF (25 ng/ml). Transwell migration was allowed for 24 h (DMS114) or 48 h (HCT116) at 37 °C, 5% CO2. Inserts were washed twice with PBS and the remaining non-invading cells on the upper surface of the membrane were removed using a cotton swab. The cells were fixed in 4% paraformaldehyde (28908; Thermo Fisher Scientific) in PBS for 5 min at RT. Fixed cells were washed twice with PBS and stained with DAPI for 15 min at RT. Inserts were washed three times in PBS before images of DAPI-stained nuclei were acquired using a widefield Nikon Ti2 microscope at 40 × magnification. Nuclei were counted on the membrane areas using ImageJ software and plotted on Prism 9 software (GraphPad).

[5] = system: HCT116; test: Boyden chamber transwell migration assay; format: cell-based, human; settings: 2.5, 5 or 10 µM, 48 h
Experimental: as §3

[6] = Multi-dose MTD with plasma exposure; format: in vivo
Experimental: […]. […] Body weights were recorded once daily for 8 days. […] In addition, plasma samples were collected at 0.5, 1, 2 and 5.3 h(s) after the second dose on Day 4 (150 mg/kg, PO; bid × 5 group) and at 0.5, 1, 2 and 6 h(s) after the final dose on Day 5 (200 mg/kg, PO; qd × 5 group). The exposure levels (ng/mL) of 7 in plasma samples were then determined by LC–MS/MS. AUClast was calculated from the area under the plasma concentration–time curve from time zero to time of last measurable concentration.

[7] = system: AGS flank tumors; test: Anti-tumor activity, AGS flank xenograft model; format: in vivo
Experimental: In vivo mouse models were generated and experiment with SKOV3 and AGS models performed by EPO, experimental pharmacology & oncology Berlin-Buch GMBH (Berlin, Germany). AGS model: AGS cells were cultured in F12-K medium (10%FCS, 1%PS) until P11. […]. Tumor diameters were determined by calliper measurements 2 × weekly, body weight (BW) was measured as parameter for tolerability 2 × weekly.

[8] = biological target: T1, FRS2 (Homo sapiens, UniProt Q8WU20); test: CETSA by IB, cell lysates; format: binding; settings: DAOY lysates
T1 construct: we used the cellular thermal shift assay (CETSA [36]) in DAOY cells; endogenous in cells; host or cells: DAOY cells (intact cells, or freeze-thaw lysates)
T1 sequence (Q8WU20 whole entry): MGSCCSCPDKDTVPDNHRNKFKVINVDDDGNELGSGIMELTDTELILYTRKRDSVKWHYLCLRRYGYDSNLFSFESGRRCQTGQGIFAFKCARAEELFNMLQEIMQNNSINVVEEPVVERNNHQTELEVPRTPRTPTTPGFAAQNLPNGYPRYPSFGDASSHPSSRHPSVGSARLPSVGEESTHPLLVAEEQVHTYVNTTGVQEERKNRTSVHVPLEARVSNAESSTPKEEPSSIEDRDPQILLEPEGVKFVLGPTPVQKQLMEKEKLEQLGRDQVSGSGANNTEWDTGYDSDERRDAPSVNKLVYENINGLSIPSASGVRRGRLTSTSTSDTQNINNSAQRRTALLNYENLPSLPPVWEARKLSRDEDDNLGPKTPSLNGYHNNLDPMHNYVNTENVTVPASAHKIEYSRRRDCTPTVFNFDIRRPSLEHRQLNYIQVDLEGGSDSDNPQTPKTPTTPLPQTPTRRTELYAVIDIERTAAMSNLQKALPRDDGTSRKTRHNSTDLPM
Experimental: Four 15 cm dishes with 0.5 × 10^6 DAOY cells per dish were grown in full medium o.n. Medium was then removed, cells washed with PBS, detached using trypsin, collected in regular growth medium, centrifuged (300 g, 25 °C, 5 min), washed with PBS and resuspended in 550 µl ice-cold PBS. Cells were lysed with three freeze–thaw cycles (freeze in liquid N2, thaw in 25 °C heat block, vortex quickly) and lysates were placed in aliquots of 250 µl on ice. Compound or solvent was added to 10 µM final concentration and samples were incubated 20 min at 4 °C under rotation. Ten 20 µl aliquots were dispensed in a pre-cooled PCR plate, which was sealed with aluminum foil and placed on ice until heat treatments. Heat treatment was performed in a gradient PCR machine with the following temperatures 40.5, 43.6, 46.2, 48.8. 51.2, 53.8, 56.4, 58.3, 61.7 and 73.8 °C for three min. Plate with samples was kept at RT for 3 min and then kept on ice until centrifugation for 2 min at 500 × g at RT.
Samples were incubated 1 h at 4 °C, with shaking at 500 rpm. Samples are filtered using a MultiScreenHTS HV-Filterplate (Merck, MSHVN4510). Membrane wells were prewetted with 50 µl PBS and centrifuged at 2000 g, RT, 3 min. The lysates were centrifuged at 2000 g, RT, 3 min and 40 µl of each supernatant was transferred to the filterplate and centrifuged at 500 g at RT for 5 min. […]

[9] = AGS model, 200 mg/kg PO once per day

Q: For `O=[N+]([O-])c1c(Cl)cc(O)c2c1C1C=CCC1C(c1ccc(Cl)cc1)N2` (stereo not shown) [Compound 7], which EC50 ([1]; Homo sapiens, RT-112) is on record?
A: 1.06 µM

Q: What about the “basal and ligand-induced collagen I invasion (result in words)” value ([1]; RT-112 (FGFR3-TACC3 fusion)) of the same molecule?
A: reduced both basal and ligand-induced collagen I invasion

Q: What about the IC50 [2] of the same molecule?
A: 3.01 µM

Q: And the IC50 ([3]; Homo sapiens, DAOY siFRS2 (reduced FRS2))?
A: 7.96 µM

Q: What about the “increase of IC50 in cells with reduced FRS2 compared to control” value ([3]; siFRS2 vs siCTL) of the same molecule?
A: more than 2.5 fold

Q: What about the “concentration at which significant reduction of transwell migration was observed” value [4] of the same molecule?
A: 10 µM

Q: What about the “basal and bFGF-increased transwell migration (result in words)” value [5] of the same molecule?
A: abolished

Q: What about the “additional body weight loss, days 5-8” value ([6]; 200 mg/kg daily for 5 days) of the same molecule?
A: 14.6%

Q: What about the “body weight loss, days 1-5” value ([6]; 200 mg/kg daily for 5 days) of the same molecule?
A: 10%

Q: What about the “multi-dose clinical signs (result in words)” value ([6]; 200 mg/kg daily for 5 days) of the same molecule?
A: induced vocalization, hunchback and decrease in touch response, abdominal and limb tone and low limb post

Q: What about the “plasma concentration reached, multi-dose” value ([6]; 200 mg/kg once daily for 5 days, day five, for at least six h after administration) of the same molecule?
A: 20 µM

Q: And the “multi-dose mortality (result in words)” value ([6]; mouse, in vivo)?
A: No mortality was noted

Q: And the “tolerability in AGS tumor-bearing mice (result in words)” value ([7]; 200 mg/kg PO, treatment interrupted for 7 days at day 72)?
A: signs of toxicity

Q: And the “animals with TV reduced at d67 and plateaued between d70 and 77” value [7, 9]?
A: four out of the six

Q: What about the “average tumor volume (result in words)” value [7, 9] of the same molecule?
A: did not significantly reduce average TV compared to control

Q: What about the ΔTm at 10 µM [8] of the same molecule?
A: -4.93 °C
